Source: patent US20240389591A1, “CRYSTALLINE FORMS OF METHYL 2-[2-[2-BROMO-4-FLUORO-5-[3-METHYL-2,6-DIOXO-4-(TRIFLUOROMETHYL)PYRIMIDIN-1-YL]PHENOXY]PHENOXY]-2-METHOXY-ACETATE” (BASF SE, priority 2021, published 2024)

What was measured:
[1] = test system: Erigeron canadensis; experiment: Greenhouse herbicidal activity, post-emergence treatment; assay type: in vivo; details: assessment 20 DAT, aqueous SC 8.33 w/v %, scale 0-100
From the text: (§1) The culture containers used were plastic flowerpots containing loamy sand with approximately 3.0% of humus as the substrate. The seeds of the test plants were sown separately for each species.
(§2) For the post-emergence treatment, the test plants were first grown to a height of 3 to 15 cm, depending on the plant habit, and only then treated with the active ingredients which had been suspended or emulsified in water. For this purpose, the test plants were either sown directly and grown in the same containers, or they were first grown separately as seedlings and transplanted into the test containers a few days prior to treatment.
(§3) Depending on the species, the test plants were kept at 10-25° C. or 20-35° C., respectively. The test period extended over 2 to 4 weeks. During this time, the test plants were tended, and their response to the individual treatments was evaluated.
(§4) Evaluation was carried out using a scale from 0 to 100. 100 means no emergence of the test plants, or complete destruction of at least the aerial moieties, and 0 means no damage, or normal course of growth. A good herbicidal activity is given at values of at least 70 and a very good herbicidal activity is given at values of at least 85.
(§5) The abovementioned methods were used to compare, in a greenhouse test, form A according to the invention and, as comparison the compound of formula (I) in amorphous form, in each case formulated as aqueous suspension concentrate (SC; 8.33 w/v %).

[2] = test system: Lolium multiflorum; experiment: as above; assay type: in vivo; details: assessment 20 DAT, aqueous SC 8.33 w/v %, scale 0-100
From the text: as §1, §2, §3, §4, §5

Structure (SMILES) | Damage [%] ([1]; 2 g/ha a.i.) | Damage [%] ([1]; 4 g/ha a.i.) | Damage [%] ([2]; 2 g/ha a.i.) | Damage [%] ([2]; 4 g/ha a.i.) | Damage [%] ([2]; 8 g/ha a.i.) | Damage [%] ([2]; 16 g/ha a.i.)
COC(=O)C(OC)Oc1ccccc1Oc1cc(-n2c(=O)cc(C(F)(F)F)n(C)c2=O)c(F)cc1Br (stereo not drawn) [Form A, methyl 2-[2-[2-bromo-4-fluoro-5-[3-methyl-2,6-dioxo-4-(trifluoromethyl)pyrimidin-1-yl]phenoxy]phenoxy]-2-methoxy-acetate] | 60 | 100 | 50 | 70 | 90 | 90
COC(=O)C(OC)Oc1ccccc1Oc1cc(-n2c(=O)cc(C(F)(F)F)n(C)c2=O)c(F)cc1Br (stereo not drawn) [amorphous, methyl 2-[2-[2-bromo-4-fluoro-5-[3-methyl-2,6-dioxo-4-(trifluoromethyl)pyrimidin-1-yl]phenoxy]phenoxy]-2-methoxy-acetate] | 30 | 70 | 15 | 25 | 75 | 80
